# Laboratory results reported in patent publication US5463030A, “Metal chelating agents for medical application” (Research Foundation of the State of New York, priority 1994, dated 1995).
# Where two headings read alike, the source gives them in different places.
# What was measured:
# [1] = in vivo; cited from earlier work
# [2] = cited from earlier work
# [3] = MRI; cited from earlier work
# [4] = mouse, in vivo; for % dosage, Urine: iv
# Protocol: Groups of four mice were individually injected in the tail vein with 20 μM/Kg of body weight (10-20 μCi) of Gd-153 labeled DTPA-bis (2,6-dimethylaniline). Each group of mice was sacrificed at intervals of 1,3 and 24 hours. The blood was collected from the heart just before the animals were sacrificed and the animals were dissected and individual organs were assayed.
# [5] = rat, in vivo, 0 min
# [6] = Osmotic pressure of Gd-DTPA bis pyridoxylamine solution; type: physicochemical; conditions: 0.144 moles/liter solution; pH 7.08
# Protocol: 0.50 g of the DTPA-bis pyridoxylamine synthesized in Example 4 was reacted with 0.15 g of Gd(OH)3 and 3.6 ml of water. The pH of the mixture was adjusted to 7.51 with sodium hydroxide. The mixture was then heated in an oil bath at a temperature of about 90° C. for about 45 minutes. The mixture was cooled and the pH adjusted to 7.08 with sodium hydroxide. 5.0 ml of the product was recovered. The concentration of the resulting Gd-DTPA bis pyridoxylamine was determined to be 0.144 moles/liter with an osmotic pressure of 646 m Os moles/liter.
compound,measurement,setting,value
"O=C([O-])CN(CCN(CC(=O)[O-])CC(=O)O)CCN(CC(=O)[O-])CC(=O)O.[Gd+3] [Gd-DTPA, gadolinium-diethylene triamino pentaacetic acid]",blood clearance and excretion,[1],rapid clearance from the blood and subsequent prompt renal excretion
gadolinium-hepatic iminodiacetic acid [Gd-HIDA],in vivo stability,[2],unstable in vivo
same,image enhancement of the gall bladder,[3],failed to enhance the image of the gall bladder
same,image enhancement of the liver,[3],only faintly enhanced images of the liver
"Cc1cccc(C)c1NC(=O)CN(CCN(CCN(CC(=O)[O-])CC(=O)Nc1c(C)cccc1C)CC(=O)[O-])CC(=O)[O-].[153Gd+3] [Gadolinium III chelate of DTPA-bis (2,6-dimethylaniline)]","% dosage, Blood",[4]; 60 min,.4441 % DOSAGE
same,"% dosage, Bone",[4]; 60 min,.1489 % DOSAGE
same,"% dosage, Large Intestine",[4]; 60 min,.0781 % DOSAGE
same,"% dosage, Left Kidney",[4]; 60 min,.7115 % DOSAGE
same,"% dosage, Liver",[4]; 60 min,22.95 % DOSAGE
same,"% dosage, Lungs",[4]; 60 min,.0326 % DOSAGE
same,"% dosage, Muscle",[4]; 60 min,.6207 % DOSAGE
same,"% dosage, Right Kidney",[4]; 60 min,.6676 % DOSAGE
same,"% dosage, Small Intestine",[4]; 60 min,36.08 % DOSAGE
same,"% dosage, Spleen",[4]; 60 min,.0214 % DOSAGE
same,"% dosage, Stomach",[4]; 60 min,.2113 % DOSAGE
same,"% dosage, Blood",[4]; 180 min,.0188 % DOSAGE
same,"% dosage, Bone",[4]; 180 min,.0678 % DOSAGE
same,"% dosage, Large Intestine",[4]; 180 min,1.471 % DOSAGE
same,"% dosage, Left Kidney",[4]; 180 min,.4528 % DOSAGE
same,"% dosage, Liver",[4]; 180 min,2.805 % DOSAGE
same,"% dosage, Lungs",[4]; 180 min,.0075 % DOSAGE
same,"% dosage, Muscle",[4]; 180 min,.6183 % DOSAGE
same,"% dosage, Right Kidney",[4]; 180 min,.5235 % DOSAGE
same,"% dosage, Small Intestine",[4]; 180 min,52.10 % DOSAGE
same,"% dosage, Spleen",[4]; 180 min,.0096 % DOSAGE
same,"% dosage, Stomach",[4]; 180 min,.1254 % DOSAGE
same,"% dosage, Blood",[4]; 1440 min,.0038 % DOSAGE
same,"% dosage, Bone",[4]; 1440 min,.1551 % DOSAGE
same,"% dosage, Large Intestine",[4]; 1440 min,.5091 % DOSAGE
same,"% dosage, Left Kidney",[4]; 1440 min,.1050 % DOSAGE
same,"% dosage, Liver",[4]; 1440 min,1.659 % DOSAGE
same,"% dosage, Lungs",[4]; 1440 min,.0085 % DOSAGE
same,"% dosage, Muscle",[4]; 1440 min,.0861 % DOSAGE
same,"% dosage, Right Kidney",[4]; 1440 min,.1102 % DOSAGE
same,"% dosage, Small Intestine",[4]; 1440 min,.1533 % DOSAGE
same,"% dosage, Spleen",[4]; 1440 min,.0042 % DOSAGE
same,"% dosage, Stomach",[4]; 1440 min,.0468 % DOSAGE
same,"% dosage, Urine",[4]; 1 h,26.30 % DOSAGE
same,"% dosage, Urine",[4]; 3 h,32.13 % DOSAGE
same,"% Retained, whole body",[5],100%
"Cc1ncc(CO)c(CNC(=O)CN(CCN(CCN(CC(=O)[O-])CC(=O)NCc2c(CO)cnc(C)c2O)CC(=O)[O-])CC(=O)[O-])c1O.[Gd+3] [Gd-DTPA bis pyridoxylamine, Gadolinium III chelate of DTPA-bis pyridoxylamide]",osmotic pressure,[6],646 m Os moles/liter
"O=C([O-])CN(CCN(CC(=O)[O-])CC(=O)[O-])CCN(CC(=O)[O-])C(COCc1ccccc1)C(=O)[O-].[Gd+3] (stereo not drawn) [Gd-BOPTA, gadolinium-benzyloxyproprionyl tetracetate]",liver concentration of injected dose,[1],37%
